# Test results published in paper PMC10300798, “Alternative Enzyme Inhibition Assay for Safety Evaluation of Food Preservatives” (Life, 2023).
# Assays:
# Format in all cases: biochemical
# [1] = molecular target: T1, alcohol dehydrogenase (ADH) (Saccharomyces cerevisiae, UniProt P00330); test: spectrophotometric NAD+ reduction, […] nm; conditions: read-out: Potassium Sorbate / IC20
# T1 construct: gene ADH1
# T1 sequence (P00330 2-348): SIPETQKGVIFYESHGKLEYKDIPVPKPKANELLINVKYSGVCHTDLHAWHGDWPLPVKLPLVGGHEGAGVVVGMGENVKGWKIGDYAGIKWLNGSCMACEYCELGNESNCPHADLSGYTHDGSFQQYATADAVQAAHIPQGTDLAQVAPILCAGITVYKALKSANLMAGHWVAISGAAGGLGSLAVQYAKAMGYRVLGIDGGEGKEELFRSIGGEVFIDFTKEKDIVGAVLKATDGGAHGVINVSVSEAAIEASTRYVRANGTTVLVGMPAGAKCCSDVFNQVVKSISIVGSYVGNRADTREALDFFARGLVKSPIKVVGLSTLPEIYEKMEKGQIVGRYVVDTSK
# trypsin (Try) = molecular target: T2, trypsin (Try) (Sus scrofa, UniProt P00761); test: BAEE hydrolysis, absorbance […] nm; conditions: read-out: Potassium Sorbate / IC50 (converted)
# T2 construct: native, from porcine pancreas, lyophilized, 1300 BAEE U/mg (Sigma-Aldrich)
# T2 sequence (P00761 9-231): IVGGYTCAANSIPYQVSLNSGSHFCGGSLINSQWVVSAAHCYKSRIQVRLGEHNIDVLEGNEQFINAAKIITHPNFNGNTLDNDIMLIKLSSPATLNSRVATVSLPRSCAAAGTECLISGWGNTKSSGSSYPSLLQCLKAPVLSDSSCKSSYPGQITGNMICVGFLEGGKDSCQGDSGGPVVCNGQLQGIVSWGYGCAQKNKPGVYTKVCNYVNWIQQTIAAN
# [2] = molecular target: T3, lactate dehydrogenase (LDH) (Oryctolagus cuniculus, UniProt P13491); test: spectrophotometric NAD+ reduction, […] nm; conditions: read-out: Sodium Benzoate / IC20
# T3 construct: gene LDHA
IC20 [1] [µg/mL],IC50 (trypsin (Try)) [µM],IC20 [2] [µg/mL],SMILES
> 5000,134,–,C/C=C/C=C/C(=O)O [potassium sorbate]
–,–,2200 ± 321,O=C(O)c1ccccc1 [sodium benzoate]
